Laboratory results taken from ChEMBL document CHEMBL1201862, “PubChem BioAssay data set” (2004).
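Compound exposure: 48 hours, 5 concentrations, 96-well plates. Here, GI50 denotes the concentration required for 50% inhibition of growth.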 Active and inactive are the calls of the source. No stated cut-off is given here; in the data, active = GI50 up to about 1.1 µM and inactive = higher.

Key:
Test in all cases: NCI tumour cell line growth inhibition, 48 h
[1] = tested on: MDA-MB-231
[2] = tested on: A549
[3] = tested on: SW-620
[4] = tested on: OVCAR-4
[5] = tested on: HL-60
[6] = tested on: UACC-257
[7] = tested on: UACC-62
[8] = tested on: OVCAR-5
[9] = tested on: A498
[10] = tested on: RPMI-8226
[11] = tested on: ACHN
[12] = tested on: NCI-H522
[13] = tested on: NCI-H226
[14] = tested on: TK-10
[15] = tested on: 786-0
[16] = tested on: COLO 205
[17] = tested on: Hs-578T
[18] = tested on: MOLT-4
[19] = tested on: UO-31
[20] = tested on: Malme-3M

| Structure (SMILES) | GI50 [1] | GI50 [2] | GI50 [3] | GI50 [4] | GI50 [5] | GI50 [6] | GI50 [7] | GI50 [8] | GI50 [9] | GI50 [10] | GI50 [11] | GI50 [12] | GI50 [13] | GI50 [14] | GI50 [15] | GI50 [16] | GI50 [17] | GI50 [18] | GI50 [19] | GI50 [20] |
| --- | --- | --- | --- | --- | --- | --- | --- | --- | --- | --- | --- | --- | --- | --- | --- | --- | --- | --- | --- | --- |
| CCOP(=O)(/C=C/n1ccc(N)nc1=O)OCC | > 100 µM (inactive) | > 100 µM (inactive) | > 100 µM (inactive) | > 100 µM (inactive) | > 100 µM (inactive) | > 100 µM (inactive) | > 100 µM (inactive) | > 100 µM (inactive) | > 100 µM (inactive) | > 100 µM (inactive) | > 100 µM (inactive) | > 100 µM (inactive) | 97.9 µM (inactive) | > 100 µM (inactive) | > 100 µM (inactive) | > 100 µM (inactive) | > 100 µM (inactive) | > 100 µM (inactive) |  |  |
| CCOC(=O)C1=CNC2=N[C@H]3CCCC[C@@H]3N2C1=O | > 100 µM (inactive) | > 100 µM (inactive) | > 100 µM (inactive) | > 100 µM (inactive) | > 100 µM (inactive) | > 100 µM (inactive) | > 100 µM (inactive) | > 100 µM (inactive) | > 100 µM (inactive) | > 100 µM (inactive) | > 100 µM (inactive) | > 100 µM (inactive) | > 100 µM (inactive) |  | > 100 µM (inactive) | > 100 µM (inactive) | > 100 µM (inactive) | > 100 µM (inactive) | > 100 µM (inactive) | > 100 µM (inactive) |
| Cc1cc(C)c2c(O)c(S(=O)(=O)c3ccc(Cl)cc3)c(=O)oc2c1 | 78.7 µM (inactive) | 46.3 µM (inactive) | 68.7 µM (inactive) | 41.7 µM (inactive) | 52.8 µM (inactive) | > 100 µM (inactive) | 58.6 µM (inactive) | 93.1 µM (inactive) | > 100 µM (inactive) | 60.1 µM (inactive) |  |  | 24.3 µM (inactive) |  | 78.2 µM (inactive) | > 100 µM (inactive) | 39.4 µM (inactive) |  | 50.8 µM (inactive) | 59.7 µM (inactive) |
| CNC(=O)CC1NC(=O)c2csc(n2)-c2ccc(-c3nc(C4=NC(C(=O)N5CCCC5C(N)=O)CO4)cs3)nc2-c2csc(n2)-c2csc(n2)C(C(C)C)NC(=O)CNC(=O)c2csc(n2)C(C(C)C)NC(=O)c2nc1sc2C (stereo not given) | 0.0153 µM (active) | 0.00724 µM (active) | 0.00962 µM (active) | 4.33 µM (inactive) | > 25 µM (inactive) | 0.02 µM (active) | 0.00438 µM (active) | 0.0271 µM (active) | 0.0923 µM (active) | > 25 µM (inactive) | 4.37 µM (inactive) |  | 0.00391 µM (active) | 0.0386 µM (active) | 0.0214 µM (active) | 0.00126 µM (active) | > 25 µM (inactive) | 0.00728 µM (active) | 2.18 µM (inactive) | > 25 µM (inactive) |
| COc1cc2c(c(O)c1OC)C(O)C1CCC(=O)N1C2c1cccc2ccccc12 (stereo not given) | 89.5 µM (inactive) | 99.1 µM (inactive) | > 100 µM (inactive) | 65.6 µM (inactive) | > 100 µM (inactive) | > 100 µM (inactive) | > 100 µM (inactive) | > 100 µM (inactive) | > 100 µM (inactive) | > 100 µM (inactive) | 82.2 µM (inactive) | 27.7 µM (inactive) | > 100 µM (inactive) |  | > 100 µM (inactive) | > 100 µM (inactive) | 48 µM (inactive) | 58.2 µM (inactive) | 91.8 µM (inactive) | 36.9 µM (inactive) |
| NC(=S)Nc1nc(=S)[nH]c2[nH]ccc12 | > 100 µM (inactive) | > 100 µM (inactive) | > 100 µM (inactive) |  | 19.1 µM (inactive) | > 100 µM (inactive) | 91 µM (inactive) | > 100 µM (inactive) | > 100 µM (inactive) | 25.9 µM (inactive) | > 100 µM (inactive) |  | > 100 µM (inactive) | 94.8 µM (inactive) | > 100 µM (inactive) | 82.4 µM (inactive) | 23.4 µM (inactive) | 21.1 µM (inactive) | 66.7 µM (inactive) |  |
| CN(N=O)C(=N)NC(=O)c1ccccc1 | > 100 µM (inactive) | > 100 µM (inactive) | > 100 µM (inactive) | > 100 µM (inactive) |  | > 100 µM (inactive) | 56.5 µM (inactive) | > 100 µM (inactive) | > 100 µM (inactive) | > 100 µM (inactive) | > 100 µM (inactive) | > 100 µM (inactive) | > 100 µM (inactive) | > 100 µM (inactive) | > 100 µM (inactive) | > 100 µM (inactive) | > 100 µM (inactive) | > 100 µM (inactive) | > 100 µM (inactive) | > 100 µM (inactive) |
| CC(C)(C)OC(=O)NC(Cc1ccc(OC(C)(C)C)cc1)C(=O)N[C@H]1CC[C@H](C(=O)O)C1 (stereo not given in full) | > 100 µM (inactive) | > 100 µM (inactive) | > 100 µM (inactive) |  | > 100 µM (inactive) | > 100 µM (inactive) |  | > 100 µM (inactive) | > 100 µM (inactive) | > 100 µM (inactive) | > 100 µM (inactive) | > 100 µM (inactive) | > 100 µM (inactive) | > 100 µM (inactive) | > 100 µM (inactive) | > 100 µM (inactive) | > 100 µM (inactive) | > 100 µM (inactive) |  |  |
| Cc1ccc2c(c1)[nH]c(=S)n2C=C1C(=O)CC(C)(C)CC1=O | > 100 µM (inactive) | > 100 µM (inactive) | > 100 µM (inactive) | > 100 µM (inactive) | > 100 µM (inactive) | > 100 µM (inactive) | > 100 µM (inactive) | > 100 µM (inactive) | > 100 µM (inactive) |  | > 100 µM (inactive) | > 100 µM (inactive) | > 100 µM (inactive) | > 100 µM (inactive) | > 100 µM (inactive) | > 100 µM (inactive) | > 100 µM (inactive) | > 100 µM (inactive) | > 100 µM (inactive) |  |
| O=C(Nc1ccc(Cl)cc1)[C-](C(=O)c1ccc(Br)cc1)[n+]1cccc(-c2ccc(Cl)cc2)n1 | 31.2 µM (inactive) | 3.72 µM (inactive) | 4.3 µM (inactive) | 3.65 µM (inactive) |  | 3.88 µM (inactive) | 3.85 µM (inactive) | 4.24 µM (inactive) | 9.71 µM (inactive) | 3.81 µM (inactive) | 4.84 µM (inactive) | 2.26 µM (inactive) |  | 5.74 µM (inactive) | 2.56 µM (inactive) | 4.15 µM (inactive) | 4.25 µM (inactive) | 5.05 µM (inactive) | 5.87 µM (inactive) | 2.86 µM (inactive) |
| COc1ccccc1C(=O)OCC1CCCN2CCCCC12 (stereo not given) | 24.8 µM (inactive) | 25.8 µM (inactive) | > 100 µM (inactive) | 83 µM (inactive) | 21.1 µM (inactive) | 31 µM (inactive) | 31.7 µM (inactive) |  | > 100 µM (inactive) | 42.2 µM (inactive) | > 100 µM (inactive) |  | 54.8 µM (inactive) | > 100 µM (inactive) | > 100 µM (inactive) | 21.1 µM (inactive) | 59.7 µM (inactive) | 38.5 µM (inactive) | > 100 µM (inactive) | 33.6 µM (inactive) |
| COc1cc(/C=C/C(=O)CC(=O)/C=C/c2cc(C)c(O)c(OC)c2)cc(C)c1O | > 100 µM (inactive) | > 100 µM (inactive) | > 100 µM (inactive) | > 100 µM (inactive) | 38.9 µM (inactive) | > 100 µM (inactive) | > 100 µM (inactive) | > 100 µM (inactive) | > 100 µM (inactive) | 37.6 µM (inactive) | > 100 µM (inactive) | > 100 µM (inactive) | > 100 µM (inactive) |  | > 100 µM (inactive) | > 100 µM (inactive) | > 100 µM (inactive) | > 100 µM (inactive) | > 100 µM (inactive) | > 100 µM (inactive) |
| COC(=O)[C@H](COC(=O)/C=C/c1ccc(OC(C)=O)c(OC(C)=O)c1)NC(=O)/C=C/c1ccc(OC(C)=O)c(OC(C)=O)c1 | 17.7 µM (inactive) | 30.7 µM (inactive) | 30.7 µM (inactive) | 17.4 µM (inactive) | > 100 µM (inactive) | 20.5 µM (inactive) | 15 µM (inactive) | 23.4 µM (inactive) | 39.3 µM (inactive) | > 100 µM (inactive) | 18 µM (inactive) |  | 29.2 µM (inactive) |  | 13.2 µM (inactive) | 18.5 µM (inactive) | 21.7 µM (inactive) | > 100 µM (inactive) |  | 5.09 µM (inactive) |
| COC(=O)c1ccc(/C=N/c2ccc(S(N)(=O)=O)cc2)cc1 | > 100 µM (inactive) | > 100 µM (inactive) |  | 97.9 µM (inactive) | 97.1 µM (inactive) | 14.2 µM (inactive) | 60.3 µM (inactive) | > 100 µM (inactive) | > 100 µM (inactive) | 30.9 µM (inactive) | 84.3 µM (inactive) |  | > 100 µM (inactive) | > 100 µM (inactive) | 57.1 µM (inactive) | > 100 µM (inactive) | 38.2 µM (inactive) | 38.4 µM (inactive) | 74.5 µM (inactive) | 85.5 µM (inactive) |
| CCOC(=O)Nc1cc2c(c(N)n1)N=C(c1ccccc1)CN2 | < 0.01 µM (active) | < 0.01 µM (active) | < 0.01 µM (active) | 28.1 µM (inactive) | < 0.0001 µM (active) | 12.8 µM (inactive) | < 0.0001 µM (active) | < 0.01 µM (active) | 0.31 µM (active) | < 0.01 µM (active) | < 0.01 µM (active) | < 0.01 µM (active) |  | 10.7 µM (inactive) | < 0.01 µM (active) | < 0.01 µM (active) | < 0.0001 µM (active) | < 0.01 µM (active) | < 0.0194 µM (active) | 16.4 µM (inactive) |
